Legend:
RS4;11-BCL-2 F104L cells = experiment: Cell proliferation assay, engineered RS4;11 cells stably overexpressing BCL-2 F104L (MTS, 168 h); assay type: cell-based; conditions: Homo sapiens, read-out: RS4, 11 BCL2-F104L
Procedure: MTS testing kit was purchased from Promega (Madison, Wis., USA). The RPMI-1640, Fetal bovine serum and Penicillin-Streptomycin were purchased from BI (Biological Industries, Beit Haemek, Israel). Puromycin was purchased from Beyotime (shanghai, China). Dimethyl sulfoxide (DMSO) was purchased from Sigma (St. Louis, Mo., USA). RS4;1l-BCL-2 G101V and RS4;11-BCL-2 F104L cells were cultured in RPM11640 supplemented with 1 ug/mL puromycin, 100 U/mL Penicillin-Streptomycin and 10% FBS.
To investigate whether a compound is able to inhibit the activity of BCL-2 mutation in cells, a mechanism-based assay using engineered cell lines stably overexpressing BCL-2 mutation ([…] and […]) was developed. In this assay, the inhibition of BCL-2 mutation was reflected by the inhibition of cell proliferation of RS4;11-BCL-2 G101V and RS4;11-BCL-2 F104L cells. Cells were plated into 96-well plates at optimized cell density (RS4;11-BCL-2 G101V: 5000 cells/well; RS4;11-BCL-2 F104L: 5000 cells/well). Plates were incubated at 37° C., with 5% CO2 for 4 h. Compounds were serially diluted to the final-concentrations of 10000, 3333.3, 1111.1, 370.4, 123.5, 41.2, 13.7, 4.6 and 1.4 nM and added to the plates. Plates were incubated at 37° C., with 5% CO2 for 168 h. 20 μl MTS was added into each well and the plates were incubated at 37° C., with 5% CO2 exactly for 2 h. The absorbance was measured by a microplate reader at 490 nm. IC50 values were calculated using GraphPad Prism 5.0 software.

Toledo cells = experiment: Cell proliferation assay, Toledo cells (MTS, 72 h); assay type: cell-based; conditions: Homo sapiens, Toledo cells, MTS, read-out: Toledo IC50
Summary of the method: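 IC50 was derived from 490 nm absorbance after a 2 h MTS step. Before that, compounds at 1.5–10000 nM final (nine points) acted on Toledo cells for 72 h at 37 °C, 5% CO2. Cells were seeded at 30000/well in 10% FBS RPMI-1640 and rested 4 h before dosing.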

Compound | IC50 (RS4;11-BCL-2 F104L cells) [nM] | IC50 (Toledo cells) [nM]
CO[C@H](C)COc1nc2[nH]cc(F)c2cc1Oc1cc(N2CCC3(CC2)CC(N2CCC[C@H]2c2ccccc2C(C)C)C3)ccc1C(=O)NS(=O)(=O)c1cc2c(c([N+](=O)[O-])c1)N[C@@H]([C@H]1CC[C@](C)(O)CC1)CO2 (single isomer, unassigned) [Example D-243b, 2-((3-fluoro-6-((R)-2-methoxypropoxy)-1H-pyrrolo[2,3-b]pyridin-5-yl)oxy)-N-(((S)-3-((1r,4S)-4-hydroxy-4-methylcyclohexyl)-5-nitro-3,4-dihydro-2H-benzo[b][1,4]oxazin-7-yl)sulfonyl)-4-(2-((R or S)-2-(2-isopropylphenyl)pyrrolidin-1-yl)-7-azaspiro[3.5]nonan-7-yl) benzamide] | 20 | 
CC(C)c1ccccc1[C@@H]1CCC[C@@H]1N1CC2(CCN(c3ccc(C(=O)NS(=O)(=O)c4ccc(NC[C@H]5CC[C@](C)(O)CC5)c([N+](=O)[O-])c4)c(Oc4cc5cc[nH]c5nc4F)c3)CC2)C1 (single isomer, unassigned) [Example D-116, 2-((6-fluoro-1H-pyrrolo[2,3-b]pyridin-5-yl)oxy)-N-((4-((1r,4r)-4-hydroxy-4-methylcyclohexyl)methyl)amino)-3-nitrophenyl) sulfonyl)-4-(2-((1S,2S or 1R,2R)-2-(2-isopropylphenyl) cyclopentyl)-2,7-diazaspiro[3.5] nonan-7-yl)benzamide] | 1 | 1
COc1nc2[nH]cc(F)c2cc1Oc1cc(N2CCC3(CC2)CN([C@H]2CCC[C@H]2c2ccccc2C(C)C)C3)ccc1C(=O)NS(=O)(=O)c1ccc(NC[C@H]2CC[C@](C)(O)CC2)c([N+](=O)[O-])c1 (single isomer, unassigned) [Example D-109, 2-((3-fluoro-6-methoxy-1H-pyrrolo [2,3-b]pyridin-5-yl)oxy)-N-((4-((((1r,4r)-4-hydroxy-4-methylcyclohexyl)methyl)amino)-3-nitrophenyl)sulfonyl)-4-(2-((1S,2S or 1R,2R)-2-(2-isopropylphenyl)cyclopentyl)-2,7-diazaspiro[3.5]nonan-7-yl)benzamide] | 8 | 1
CO[C@@H](C)COc1nc2[nH]cc(F)c2cc1Oc1cc(N2CCC3(CC2)CN([C@H]2CCC[C@H]2c2ccccc2C(C)C)C3)ccc1C(=O)NS(=O)(=O)c1cnc(NC[C@H]2CC[C@](C)(O)CC2)c([N+](=O)[O-])c1 (single isomer, unassigned) [Example A-155a, 2-((3-fluoro-6-((S)-2-methoxypropoxy)-1H-pyrrolo[2,3-b]pyridin-5-yl)oxy)-N-((6-(((1r,4r)-4-hydroxy-4-methylcyclohexyl)methyl)amino)-5-nitropyridin-3-yl)sulfonyl)-4-(2-((1S,2S or 1R,2R)-2-(2-isopropylphenyl)cyclo-pentyl)-2,7-diazaspiro[3.5]nonan-7-yl) benzamide] | 27 | 
CC(C)c1ccccc1[C@@H]1CCC[C@@H]1N1CC2(CCN(c3ccc(C(=O)NS(=O)(=O)c4cnc(NC[C@H]5CC[C@](C)(O)CC5)c([N+](=O)[O-])c4)c(Oc4cc5cc[nH]c5nc4F)c3)CC2)C1 (single isomer, unassigned) [Example A-158, 2-((6-fluoro-1H-pyrrolo[2,3-b]pyridin-5-yl)oxy)-N-((6-((((1r,4r)-4-hydroxy-4-methylcyclohexyl)methyl)amino)-5-nitropyridin-3-yl)sulfonyl)-4-(2-((1S,2S or 1R,2R)-2-(2-isopropylphenyl)cyclo-pentyl)-2,7-diazaspiro[3.5]nonan-7-yl) benzamide] | 8 | 1

Second part, led by results:

IC50 (RS4;11-BCL-2 F104L cells) [nM] | Compound | IC50 (Toledo cells) [nM]
15 | CCc1nc2[nH]cc(F)c2cc1Oc1cc(N2CCC3(CC2)CC(N2CCC[C@H]2c2ccccc2C(C)C)C3)ccc1C(=O)NS(=O)(=O)c1cc2c(c([N+](=O)[O-])c1)N[C@@H]([C@H]1CC[C@](C)(O)CC1)CO2 (single isomer, unassigned) [Example D-245, 2-((6-ethyl-3-fluoro-1H-pyrrolo [2,3-b]pyridin-5-yl)oxy)-N-(((S)-3-((1r,4S)-4-hydroxy-4-methylcyclohexyl)-5-nitro-3,4-dihydro-2H-benzo[b][1,4]oxazin-7-yl)sulfonyl)-4-(2-((R or S)-2-(2-isopropylphenyl)pyrrolidin-1-yl)-7-azaspiro[3.5]nonan-7-yl)benzamide] | 
1 | CC(C)c1ccccc1[C@@H]1CCC[C@@H]1N1CC2(CCN(c3ccc(C(=O)NS(=O)(=O)c4cc5c(c([N+](=O)[O-])c4)N[C@@H]([C@H]4CC[C@](C)(O)CC4)CO5)c(Oc4cc5cc[nH]c5nc4F)c3)CC2)C1 (single isomer, unassigned) [Example D-117, 2-((6-fluoro-1H-pyrrolo[2,3-b]pyridin-5-yl)oxy)-N-(((S)-3-((1r,4S)-4-hydroxy-4-methylcyclohexyl)-5-nitro-3,4-dihydro-2H-benzo[b] [1,4]oxazin-7-yl)sulfonyl)-4-(2-((1S,2S or 1R,2R)-2-(2-isopropylphenyl)cyclopentyl)-2,7-diazaspiro[3.5]nonan-7-yl)benzamide] | 1
5 | CCc1nc2[nH]cc(F)c2cc1Oc1cc(N2CCC3(CC2)CN([C@H]2CCC[C@H]2c2ccccc2C(C)C)C3)ccc1C(=O)NS(=O)(=O)c1cc2c(c([N+](=O)[O-])c1)N[C@@H]([C@H]1CC[C@](C)(O)CC1)CO2 (single isomer, unassigned) [Example D-239, 2-((6-ethyl-3-fluoro-1H-pyrrolo [2,3-b]pyridin-5-yl)oxy)-N-(((S)-3-((1r,4S)-4-hydroxy-4-methylcyclohexyl)-5-nitro-3,4-dihydro-2H-benzo[b][1,4]oxazin-7-yl)sulfonyl)-4-(2-((1S,2S or 1R,2R)-2-(2-isopropylphenyl)cyclopentyl)-2,7-diazaspiro[3.5]nonan-7-yl)benzamide] | 
10 | CCc1nc2[nH]cc(F)c2cc1Oc1cc(N2CCC3(CC2)CN([C@H]2CCC[C@H]2c2ccccc2C(C)C)C3)ccc1C(=O)NS(=O)(=O)c1ccc(NC[C@H]2CC[C@](C)(O)CC2)c([N+](=O)[O-])c1 (single isomer, unassigned) [Example D-235, 2-((6-ethyl-3-fluoro-1H-pyrrolo [2,3-b]pyridin-5-yl)oxy)-N-((4-(((1r,4r)-4-hydroxy-4-methylcyclohexyl)methyl)amino)-3-nitrophenyl) sulfonyl)-4-(2-((1S,2S or 1R,2R)-2-(2-isopropylphenyl)cyclopentyl)-2,7-diazaspiro[3.5] nonan-7-yl)benzamide] | 
11 | CO[C@@H](C)COc1nc2[nH]cc(F)c2cc1Oc1cc(N2CCC3(CC2)CN([C@H]2CCC[C@H]2c2ccccc2C(C)C)C3)ccc1C(=O)NS(=O)(=O)c1cc2c(c([N+](=O)[O-])c1)N[C@@H]([C@H]1CC[C@](C)(O)CC1)CO2 (single isomer, unassigned) [Example D-241a, 2-((3-fluoro-6-((S)-2-methoxypropoxy)-1H-pyrrolo[2,3-b]pyridin-5-yl)oxy)-N-((S)-3-((1r,4S)-4-hydroxy-4-methylcyclohexyl)-5-nitro-3,4-dihydro-2H-benzo[b][1,4]oxazin-7-yl)sulfonyl)-4-(2-((1S,2S or 1R,2R)-2-(2-isopropylphenyl)cyclopentyl)-2,7-diazaspiro[3.5]nonan-7-yl)benzamide] | 
13 | CO[C@@H](C)COc1nc2[nH]cc(F)c2cc1Oc1cc(N2CCC3(CC2)CC(N2CCC[C@H]2c2ccccc2C(C)C)C3)ccc1C(=O)NS(=O)(=O)c1cc2c(c([N+](=O)[O-])c1)N[C@@H]([C@H]1CC[C@](C)(O)CC1)CO2 (single isomer, unassigned) [Example D-243a, 2-((3-fluoro-6-((S)-2-methoxypropoxy)-1H-pyrrolo[2,3-b]pyridin-5-yl)oxy)-N-(((S)-3-((1r,4S)-4-hydroxy-4-methylcyclohexyl)-5-nitro-3,4-dihydro-2H-benzo[b][1,4]oxazin-7-yl)sulfonyl)-4-(2-((R or S)-2-(2-isopropylphenyl)pyrrolidin-1-yl)-7-azaspiro[3.5]nonan-7-yl) benzamide] | 
23 | CCc1nc2[nH]cc(F)c2cc1Oc1cc(N2CCC3(CC2)CN([C@H]2CCC[C@H]2c2ccccc2C(C)C)C3)ccc1C(=O)NS(=O)(=O)c1cnc(NC[C@H]2CC[C@](C)(O)CC2)c([N+](=O)[O-])c1 (single isomer, unassigned) [Example A-157, 2-((6-ethyl-3-fluoro-1H-pyrrolo[2,3-b]pyridin-5-yl)oxy)-N-((6-((((1r,4r) 4-hydroxy-4-methylcyclohexyl)methyl)amino)-5-nitropyridin-3-yl)sulfonyl)-4-(2-((1S,2S or 1R,2R)-2-(2-isopropylphenyl)cyclo-pentyl)-2,7-diazaspiro[3.5]nonan-7-yl) benzamide] | 

Source: patent US20230159527A1, “COMPOUNDS AS BCL-2 INHIBITORS” (Fochon Pharmaceuticals, Ltd., priority 2020, published 2023)
